The subject of one data set is human SW-13 cells. Nature of the data set: growth assay with human SW-13 cells (FIG. 2, FIG. 4). The conditions noted are these: for inhibition of SW-13 cell growth: amounts added as high as 1,000 μg/ml. It is filed as cell-based. An excerpt: FIG. 2 illustrates the results of a growth assay conducted with both a peptide of the present invention (retro-peptide) and the antero-peptide sequence thereof.
FIG. 2 illustrates that both the antero-peptide and the retro-peptide are inhibitory in a growth assay with human SW-13 cells.
FIG. 4 illustrates the difference in effect on SW-13 cell growth between a 10-mer peptide sequence of the formula (SEQ ID NO:6): […]
As may be seen from FIG. 4, the 15-mer sequence has an inhibitive effect on SW-13 cell growth with increasing amount added in μg/ml. This effect becomes almost completely inhibiting in amounts added of about 100 μg/ml and greater.

The next data set relates to human melanoma. Nature of the data set: growth inhibition of human melanoma. It counts as cell-based. To be noted: same concentration as in the SW-13 assay.
Data set [1] relates to human rhabdomyosarcoma. Nature of the data set: growth inhibition of human rhabdomyosarcoma (in vitro). The conditions noted are these: same concentration as in the SW-13 assay. It is filed as cell-based.
A further data set has as its system normal human cells. Nature of the data set: FGF-stimulated growth of normal human cells. It is filed as cell-based.
A further data set deals with SW-13 cells. Put plainly: FGF-stimulated colony formation of SW-13 cells (FIG. 3). It counts as cell-based, human. An excerpt: FIG. 3 illustrates the competitive mechanism of FGF-dependent growth inhibition by a retro-peptide of the present invention.
(§1) FIG. 3 illustrates the competitive mechanism of FGF-dependent growth inhibition by the retro-peptide of the present invention. […] This clearly establishes the specificity of the FGF-receptor inhibition by the present retro-peptide.
In FIG. 3, "Co" refers to a control, while "A" refers to the antero-peptideand "R" refers to the retro-peptide.

Another data set has as its system breast cancer cells. Nature of the data set: growth of cell lines growing independently from FGF. It is filed as cell-based. The conditions noted are these: such as breast cancer cells.
Description: as §1

The subject of data set [2] is human rhabdomyosarcoma. Nature of the data set: human rhabdomyosarcoma xenograft in athymic nude mice (FIG. 6). It counts as in vivo. The protocol:
Animal studies with human rhabdomyosarcoma growing in athymic nude mice were carried out with the 15 mer peptide. Tumors were allowed to grow subcutaneously and peptide (25 mg/kg of body weight) dissolved in saline was injected for eight days daily intraperitoneally. After three weeks the tumor size in a control group treated only with saline solution was 26.6±6.8 mm^2. The tumor size in the peptide-treated animals was 5.4±1.6 mm^2. […] This is illustrated in FIG. 6.
(§2) Human tumor cells (1 million per mouse) were inoculated in 0.1 ml of saline solution into a mammary fat pad of each mouse. Each group of treatment consisted of 10 animals. One day after the inoculation of tumor cells the animals were treated with a single daily intraperitoneal injection of saline solution (control group) or with the 15-mer retropeptide dissolved in saline solution at a dose of 25 mg per kg body weight (peptide group) or 25 mg per kg body weight of pentosanpolysulfate (pentosan polysulfate group). The treatment with peptide was continued for 8 days due to a currently still limited supply of the peptide. The pentosanpolysulfate treatment was continued throughout the whole observation period.
(§3) The mean ± standard error tumor size is 26.6±6.8 mm^2 (control group) and […] (peptide group). This difference is highly significant (p<0.003) as tested by student's t-test.

Data set [3] can be described thus: tolerability in tumor-bearing mice. To be noted: 25 mg/kg daily i.p. for 8 days. It is filed as in vivo, athymic nude mice. Here is the method:
as §2, §3

The next data set is described as follows: water solubility. It counts as physicochemical. Here is the method:
The present retro-peptide is water-soluble and is administered by any route, especially intravenously, subcutaneously, intraperitonially, intramuscularly, orally and rectally. The peptide may be conveniently administered in dextrose 5% saline or in saline solution.

Ends that are not written are not given here.

The values below come from patent US5789382A, “Retro-peptide fibroblast growth factor which blocks FGF receptor” (Georgetown University, priority 1993, dated 1998).

For “NH2 --YRSRK--YSSWY-CO2 H [10-mer sequence, reference compound]”, the “inhibition of SW-13 cell growth” value was “essentially no such inhibition” in the data set with human SW-13 cells (FIG. 4) and “loss of activity” with human SW-13 cells (FIG. 4, listed as 10-mer).
As to “NH2 --YRSRK--YSSWY-VALKR--CO2 H [15-mer sequence]”, the “amount added at which inhibition of SW-13 cell growth becomes almost complete” value in the data set on human SW-13 cells (FIG. 4, about 100 μg/ml and greater) was “about 100 μg/ml”.
With “RKLAVYWSSYKRSRY [retro-peptide, NH2 --RKLAV--YWSSY--KRSRY--COOH]”, the “inhibition in growth assay with human SW-13 cells” value in the data set with human SW-13 cells (FIG. 2) is reported as “inhibitory”. For the same substance, the “potency in SW-13 growth assay relative to the antero-peptide” value in the data set on human SW-13 cells (FIG. 2, retro-peptide versus antero-peptide) was “much more potent”. For the same substance, the “effectiveness against human melanoma” value with human melanoma is given as “effective at the same concentration”. The “effectiveness against human rhabdomyosarcoma” value in the data set on human rhabdomyosarcoma [1] is listed as “effective at the same concentration”. The “FGF-stimulated growth of normal human cells” value with normal human cells is on record as “blocks FGF-stimulated growth”. In addition, the “dose-response curve of FGF-stimulated colony formation of SW-13 cells” value with SW-13 cells (competitive mechanism) was “shifted to the right without affecting the maximum achieved”. Further, in the data set on breast cancer cells, the “inhibition of cell lines growing independently from FGF” value is “neither of the antero-peptide nor retro-peptide inhibit”. In addition, in the data set with human rhabdomyosarcoma [2] (after 24 days of observation, 25 mg/kg daily i.p. for 8 days, saline control 26.6±6.8, p<0.003), the “mean ± standard error tumor size” value came out at 5.0±1.6 mm^2. In the data set with human rhabdomyosarcoma [2] (after three weeks, 25 mg/kg daily i.p. for eight days, saline control 26.6±6.8, p<0.003), this substance gave a tumor size of 5.4±1.6 mm^2. Further, in [3], the “body weight and signs of illness” value was “did not lose weight or show any other signs of major illness”; the tolerability result was “tolerated the peptide well”. Besides, the solubility in water entry in the data set “water solubility” is on record as “water-soluble”.
“YRSRKYSSWYVALKR [antero-peptide, NH2 --YRSRK--YSSWY--VALKR--COOH, reference compound]”: in the data set with human SW-13 cells (FIG. 2), the “inhibition in growth assay with human SW-13 cells” value is reported as “inhibitory”. For the same substance, the “potency in FGF-stimulated SW-13 colony formation relative to the retro-peptide” value in the data set on SW-13 cells (antero-peptide versus retro-peptide) is listed as “significantly less potent”. Also, in the data set on breast cancer cells, the “inhibition of cell lines growing independently from FGF” value was “neither of the antero-peptide nor retro-peptide inhibit”.
On to “pentosanpolysulfate [reference compound]”, for which the “action on tumor size” value with human rhabdomyosarcoma [2] (25 mg/kg daily i.p. throughout the observation period, p<0.05) is “significant”.
